Reference: ChEMBL document CHEMBL1148597, “New tyrosinase inhibitors selected by atomic linear indices-based classification models” (Bioorg Med Chem Lett, 2006)

Target: T1, Tyrosinase (Homo sapiens, UniProt P14679)
T1 sequence (P14679 whole entry): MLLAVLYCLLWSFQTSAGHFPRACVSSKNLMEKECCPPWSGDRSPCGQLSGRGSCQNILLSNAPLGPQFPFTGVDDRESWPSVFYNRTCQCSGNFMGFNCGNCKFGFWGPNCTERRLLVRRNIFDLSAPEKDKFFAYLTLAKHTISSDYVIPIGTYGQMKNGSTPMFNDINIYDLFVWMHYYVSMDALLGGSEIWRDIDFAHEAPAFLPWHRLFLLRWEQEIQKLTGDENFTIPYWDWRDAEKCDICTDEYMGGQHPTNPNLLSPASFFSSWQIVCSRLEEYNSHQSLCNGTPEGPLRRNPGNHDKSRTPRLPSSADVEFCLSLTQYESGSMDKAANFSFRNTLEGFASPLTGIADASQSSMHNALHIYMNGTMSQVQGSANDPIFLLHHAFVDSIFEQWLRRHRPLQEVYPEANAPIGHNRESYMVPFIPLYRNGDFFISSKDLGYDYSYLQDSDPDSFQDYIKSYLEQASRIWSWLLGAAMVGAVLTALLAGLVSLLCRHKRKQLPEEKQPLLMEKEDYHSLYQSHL
Assay: Inhibitory activity against tyrosinase

Structure (SMILES) | IC50
C[C@@H]1C[C@H]2O[C@]3(C[C@@]4(C)[C@@H]5[C@@H](O)C[C@H]6C(C)(C)[C@@H](O[C@@H]7OC[C@@H](O)[C@H](O)[C@H]7O)CC[C@@]67C[C@@]57CC[C@]4(C)[C@@H]13)O[C@@H]2C(C)(C)O[C@@H]1O[C@H](CO)[C@@H](O)[C@H](O)[C@H]1O [CYCLOORBICOSIDE G] | 54.6 µM
CC(C)(O)[C@@H]1CC[C@](C)([C@H]2[C@@H](O)C[C@@]3(C)[C@@H]4C[C@H](O[C@H]5O[C@@H](CO)[C@H](O)[C@H](O)[C@@H]5O)[C@H]5C(C)(C)[C@@H](O[C@@H]6OC[C@@H](O)[C@H](O)[C@H]6O)CC[C@@]56C[C@@]46CC[C@]23C)O1 [CYCLOSIEVERSIOSIDE] | 92.3 µM
CC(=O)O[C@@H]1[C@@H](O[C@@H]2OC[C@H](O)[C@H](O)[C@H]2O)[C@H](O[C@H]2CC[C@]34C[C@]35CC[C@]3(C)[C@@H]([C@@]6(C)CC[C@H](C(C)(C)O)O6)[C@@H](O)C[C@@]3(C)[C@@H]5C[C@H](O[C@@H]3OC[C@@H](O)[C@H](O)[C@H]3O)[C@H]4C2(C)C)OC[C@H]1O [ASKENDOSIDE B] | 13.9 µM
CC(C)(O)CCC(=O)[C@@](C)(O)[C@H]1[C@H](O)C[C@@]2(C)[C@@H]3CC=C4[C@@H](C=C(O[C@@H]5O[C@H](CO)[C@@H](O)[C@H](O)[C@H]5O)C(=O)C4(C)C)[C@]3(C)C(=O)C[C@]12C [BRYOAMARIDE] | 85 µM

Further lines, results first:

IC50 | Structure (SMILES)
102 µM | C[C@@H]1O[C@@H](O[C@H]2C[C@@H]3[C@]4(CC[C@]5(C)[C@@H]([C@@]6(C)CC[C@@H](C(C)(C)O)O6)[C@@H](O)C[C@@]35C)C[C@@]43CC[C@H](O[C@@H]4OC[C@@H](O)[C@H](O)[C@H]4O)C(C)(C)[C@H]23)[C@H](O)[C@H](O)[C@H]1O [CYCLOCARPOSIDE]
48.9 µM | CC(C)(O)[C@@H]1CC[C@](C)([C@H]2[C@@H](O)C[C@@]3(C)[C@@H]4C[C@H](O[C@@H]5OC[C@@H](O)[C@H](O)[C@H]5O)[C@H]5C(C)(C)[C@@H](O[C@@H]6OC[C@@H](O)[C@H](O)[C@H]6O[C@@H]6OC[C@H](O)[C@H](O)[C@H]6O)CC[C@@]56C[C@@]46CC[C@]23C)O1 [ASKENDOSIDE D]
